Results on 1 compound are retold here after US11058700B2, “Macrocyclic lactones and uses thereof as modulators of purinergic receptors” (City of Hope, priority 2015, dated 2021).

Common to all, as to format: cell-based, mouse
In experiment [1] the test system is 4T1.2 cells. In words: Colony assay, 4T1.2 cells seeded at 100 cells/well, colonies counted after a week. To be noted: extended exposure time (Ivermectin during the entire duration of the assay). The method, then: (§1) FIGS. 1A-1H. Ivermectin kills breast cancer cells through a mixed apoptotic and necrotic mechanism. FIG. 1A: Mouse (4T1.2) and human (MDA-MB-231) TNBC cells manifest similar sensitivity to Ivermectin. Viability of cells treated with various doses of Ivermectin for 24 h. FIG. 1B: Extended exposure time reduces IC50 values to as low as 2 μM. 4T1.2 cells were seeded at 100 cells/well and individual colonies were counted after a week. Cancer cells were exposed to Ivermectin during the initial 24 h or during the entire duration of the assay. FIG. 1C: MDA-MB-231 breast cancer cells manifest higher sensitivity to Ivermectin compared to normal non-transformed human foreskin fibroblasts (HFFs). FIG. 1D: Flow cytometry analysis showing that cell death proceeds through two distinct pathways: a directly necrotic 7AAD-single positive or Annexin V/PS-single positive apoptotic pathway. FIG. 1E: Kinetics of necrotic versus apoptotic killing of 4T1.2 breast cancer cells. FIG. 1F: Ivermectin-induced cell death can be reversed by inhibition of various controlled cell death pathways. 4T1.2 cells were treated for 4 h with 32 μM Ivermectin in the presence of μM concentrations of Z-vad-fmk, Necrostatin-1, Digoxin, or VX-765, as indicated. FIG. 1G: Activation of Caspase-1, Caspase-3 and cleavage of PARP in 4T1.2 and MDA-MB-231 cells treated with 32 μM for 4 h. […]

Experiment [2] relates to 4T1.2 breast cancer cells. The experiment is described as follows: Flow cytometry of mode of cell death (Annexin V / 7AAD). To be noted: Ivermectin-treated breast cancer cells. Here is the method:
as §1, with “pathways.” for “pathways. 4T1.2 cells were treated for 4 h with 32 μM Ivermectin in the presence of μM concentrations of Z-vad-fmk, Necrostatin-1, Digoxin, or VX-765, as indicated. FIG. 1G: Activation of Caspase-1, Caspase-3 and cleavage of PARP in 4T1.2 and MDA-MB-231 cells treated with 32 μM for 4 h.”
Cell viability. […] Following treatment the plates were washed once with PBS and cell viability was measured using the acid phosphatase assay. […] Absorption at 405 nm was measured within 10 min using a multi-well plate reader. Mode of cell death and viability of cells in suspension was evaluated using flow cytometry. […]

In experiment [3] the test system is 4T1.2 cancer cells. The experiment is described as follows: Synergy between Ivermectin and ROS (CompuSyn CI). To be noted: for CompuSyn CI values: 4T1.2, 24 h/48 h. Here is the method: FIGS. 2A-2C. Role of NADPH oxidases-generated ROS. […] 4T1.2 cells were labeled with a ROS detection probe and treated for 1 h with 32 μM Ivermectin in the presence of 1 mM EDTA, 5mM NAC, 5 μM DPI, 2500 μunits/ml Apyrase, 3 mM ATP, and 10 μM KN-62. […] Triangles (▴) indicate significant antagonism CI>1.0. […] 4T1.2 cancer cells were irradiated (10-20 kRad) or treated with H2O2 (10-1000 μM), PTX (0.1-1 μM), or DOX (1-4 μM) and incubated with Ivermectin for 24 h/48 h. Circles (●) indicate significant synergy CI<1.0, see Table 1. Asterisk (*) indicates p<0.05 relative to untreated or Ivermectin alone controls, respectively.
Cell viability. Cancer cells were plated on 96 well flat-bottom plates and allowed to attach overnight. Cells were then pre-incubated with drugs for 1 h and treated with Ivermectin for 4 h. In the case of 24 h and 48 h incubations the cells, Ivermectin and drugs were plated together. […] Following treatment the plates were washed once with PBS and cell viability was measured using the acid phosphatase assay. Briefly, cells were incubated for 1h at 37° C. in 100 μL assay buffer (0.16 M sodium acetate, 0.1% Triton-X-100, supplemented with 4-Nitrophenyl phosphate disodium salt hexahydrate, Sigma Aldrich, at 0.00263 g/ml). Reaction was stopped using 10 μL of 1N sodium hydroxide. Absorption at 405 nm was measured within 10 min using a multi-well plate reader. Mode of cell death and viability of cells in suspension was evaluated using flow cytometry. Briefly, cancer cells were pre-incubated with drugs for 30 min to 1 h, as indicated, treated with Ivermectin for 4 h in 5 ml FACS tubes , washed twice in PBS and stained with PE-conjugated Annexin V and 7AAD (1 μl per 100 μl/200,000 cancer cells) for 15 min.

For experiment [4], the system named is 4T1.2 cells. The experiment is described as follows: Cytosolic Ca2+ flux. Here is the method: Cytosolic Ca^2+ flux. Cancer cells in suspension were washed with PBS and loaded with 1 μM Rhod-3 AM (Life Technologies, R10145) for 30 min at room temperature in the dark. Cells were washed with PBS couple of times and treated with various doses of Ivermectin in R10 medium. Cells were incubated for 15 min to 4 h in 5 ml FACS tubes at 37° C. and 5% CO2, followed by immediate flow cytometry analysis of fluorescence in the PE channel. Chelating of extracellular and intracellular Ca^2+ was performed by supplementing the Ivermectin treatment medium with 1 mM EDTA (USB Corp, 15694) or by adding 20 μM BAPTA-AM (Tocris, 2787) to the Rhod-3 AM loading solution, respectively.

Where only a bound is given, the exact number is not on record here.

With `CC[C@H](C)[C@H]1O[C@]2(CC[C@@H]1C)C[C@@H]1C[C@@H](C/C=C(\C)[C@@H](O[C@H]3C[C@H](OC)[C@@H](O[C@H]4C[C@H](OC)[C@@H](O)[C@H](C)O4)[C@H](C)O3)[C@@H](C)/C=C/C=C3\CO[C@@H]4[C@H](O)C(C)=C[C@@H](C(=O)O1)[C@]34O)O2` [Ivermectin], the IC50 (in general, the concentration that gives 50% inhibition) in experiment [1] is not below 2000 nM. Further, in experiment [2], the “dying cancer cells directly necrotic (7AAD-positive)” value is recorded as “More than 90%”. Besides, in experiment [3] (4T1.2 cells), the “synergy with irradiation, H2O2-generated ROS, doxorubicin and paclitaxel” value was “synergistic”. The “CompuSyn CI values” in experiment [3] (kRad 15 + Ivermectin 4) is listed as “.16”; in experiment [3] (kRad 15 + Ivermectin 8), “.75”; in experiment [3] (kRad 20 + Ivermectin 4) it was “.94”; in experiment [3] (kRad 20 + Ivermectin 8) it was “.63”. The “cytosolic Ca2+” value in experiment [4] is “sustained increases in cytosolic Ca^2+”.
